Source: US5187157A, “Peptide boronic acid inhibitors of trypsin-like proteases” (Du Pont Merck Pharmaceutical Company, priority 1988, dated 1993)
Residues, ends and D or L forms follow the SMILES beside them. *: point of attachment. X1 = CC1(C)C2CC3OB(C(CCCNC(=N)N)N*)OC3(C)C1C2; X2 = CC1(C)C2CC3OB(C(CCCSC(=N)N)N*)OC3(C)C1C2; X3 = CC1(C)C2CC3OB(C(CCCN)N*)OC3(C)C1C2; Boc = CC(C)(C)OC(=O)*

Assays:
Human plasma kallikrein = target: T1, Human plasma kallikrein (Homo sapiens, UniProt P03952); experiment: Inhibition of Human Plasma Kallikrein; assay type: biochemical; conditions: for Percent Activity: activity remaining 10 to 20 min after initiation
T1 construct: purchased Protogen AG (Switzerland)
Procedure: (§1) In the Examples which follow, the hydrolytic activity of each enzyme is measured in both the presence and absence of inhibitor and the percent enzyme activity determined. […] A steady state is reached fairly rapidly and nears completion within 5 min. Activity is evaluated between 10-20 min after the components are mixed to insure that reaction components are at equilibrium. The lowest concentration of inhibitor tested is determined by the estimated concentration of enzyme. […] The maintenance of pseudo-first-order reaction conditions and the sensitivity of the respective assays sets the lowest limit level of inhibitor tested at 10 nM for kallikrein inhibitors and 5 nM for thrombin inhibitors.
Human plasma kallikrein was obtained from Protogen AG (Switzerland). The specific activity as described by the supplier is 15 units per mg. A unit is defined as the quantity of enzyme required to hydrolyze 1 μmole of substrate, H-(D)Pro-Phe-Arg-p-nitroanilide (Kabi S2302), per min at a substrate concentration of 0.50 mM at 25° in 50 mM potassium phosphate buffer, pH 8.0.

Human thrombin = target: T2, Human thrombin (Homo sapiens, UniProt P00734); experiment: Inhibition of Thrombin (Esterase Activity); assay type: biochemical; conditions: for Percent Activity: activity remaining 10 to 20 min after initiation
T2 construct: purchased R.Q.P. Laboratories, South Bend, IN Lot HT102
Procedure: as §1
A stock solution of thrombin was prepared in 0.010M PIPES Buffer, pH 6.0, containing 0.75 M sodium chloride. […] The initial concentration of substrate was 0.10 mM and the concentration of thrombin was 1.0 nM (based on weight).

T1 sequence (P03952 391-638 limits assumed): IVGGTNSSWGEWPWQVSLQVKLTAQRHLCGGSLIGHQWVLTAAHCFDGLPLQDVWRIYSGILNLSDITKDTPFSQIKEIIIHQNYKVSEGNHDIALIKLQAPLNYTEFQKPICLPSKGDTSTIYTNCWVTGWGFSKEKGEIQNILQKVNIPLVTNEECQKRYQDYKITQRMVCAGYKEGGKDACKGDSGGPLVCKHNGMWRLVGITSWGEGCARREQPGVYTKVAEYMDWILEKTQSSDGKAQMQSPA
T1 sequence (P03952 20-390 partner limits assumed): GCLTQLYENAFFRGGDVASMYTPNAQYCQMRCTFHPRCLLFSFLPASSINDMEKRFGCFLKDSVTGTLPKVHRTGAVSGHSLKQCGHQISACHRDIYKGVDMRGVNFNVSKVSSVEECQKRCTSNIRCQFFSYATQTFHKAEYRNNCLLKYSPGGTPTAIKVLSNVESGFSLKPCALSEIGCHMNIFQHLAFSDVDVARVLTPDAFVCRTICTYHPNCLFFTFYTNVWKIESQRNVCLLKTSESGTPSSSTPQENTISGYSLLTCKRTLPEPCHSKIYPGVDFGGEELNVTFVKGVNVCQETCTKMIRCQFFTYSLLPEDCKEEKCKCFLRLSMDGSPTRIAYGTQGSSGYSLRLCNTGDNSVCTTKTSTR

CC(=O)NC(Cc1ccccc1)C(=O)N1CCCC1C(=O)NC(CCCNC(=N)N)B1OC2CC3CC(C3(C)C)C2(C)O1.Cl (stereo not drawn) [Ac--(D)Phe--Pro--boroArg--C10 H16.HCl, Ac-(D)Phe-Pro-boroArg-C10 H16.HCl]
Percent Activity (Human plasma kallikrein; inhibitor 10 nM): 56% | Ki (suggested by inhibitor concentration and percent inhibition) (Human thrombin; estimate from percent inhibition): in the picomolar range | inhibits thrombin (Human thrombin; inhibitor 5 nM): 99% | Percent Activity (Human thrombin; inhibitor 5 nM): 1%

Br.CC(=O)NC(C)C(=O)NC(CCCCNC(=O)OC(C)(C)C)C(=O)NC(CCCSC(=N)N)B1OC2CC3CC(C3(C)C)C2(C)O1 (centres unmarked) [Ac--Ala--Lys(Boc)--boroIrg--C10 H16.HBr, Ac-Ala-Lys(Boc)-boroIrg-C10 H16.HBr]
Percent Activity (Human plasma kallikrein; inhibitor 50 nM): 1.4% | Percent Activity (Human thrombin; inhibitor 100 nM): 55%

CC(=O)NC(C)C(=O)NC(CCCCN)C(=O)NC(CCCNC(=N)N)B1OC2CC3CC(C3(C)C)C2(C)O1.Cl.Cl (stereo not drawn) [Ac--Ala--Lys--boroArg--C10 H16.2HCl, Ac-Ala-Lys-boroArg-C10 H16.2HCl]
Percent Activity (Human plasma kallikrein; inhibitor 50 nM): 39% | Percent Activity (Human thrombin; inhibitor 1000 nM): 45%

Br.Br.CC(=O)NC(C)C(=O)NC(CCCCN)C(=O)NC(CCCSC(=N)N)B1OC2CC3CC(C3(C)C)C2(C)O1 (stereo not drawn) [Ac--Ala--Lys--boroIrg--C10 H16.2HBr, Ac-Ala-Lys-boroIrg-C10 H16.2HBr]
Percent Activity (Human thrombin; inhibitor 1000 nM): 68%

CC(=O)NC(Cc1ccccc1)C(=O)NC(CCCCN)B1OC(C)(C)C(C)(C)O1.Cl (centres unmarked) [Ac--Phe--boroLys--C6 H12.HCl, Ac-Phe-boroLys-C6 H12.benzene sulfonic acid]
Percent Activity (Human thrombin; inhibitor 10000 nM): 97%

CC(C)(C)OC(=O)NC(Cc1ccccc1)C(=O)NC(Cc1ccccc1)C(=O)NC(CCCN)B1OC2CC3CC(C3(C)C)C2(C)O1.O=S(=O)(O)c1ccccc1 (stereo not drawn) [Boc--(D)Phe--Phe--boroOrn--C10 H16.BSA, Boc-(D)Phe-Phe-boroOrn-C10 H16.benzene sulfonic acid]
Percent Activity (Human plasma kallikrein; inhibitor 10000 nM): 39%

CC(C)(C)OC(=O)NC(Cc1ccccc1)C(=O)N1CCCC1C(=O)NC(CCCN)B1OC2CC3CC(C3(C)C)C2(C)O1.O=S(=O)(O)c1ccccc1 (stereo not drawn) [Boc--(D)Phe--Pro--boroOrn--C10 H16.BSA, Boc-(D)Phe-Pro-NH-CH[(CH2)3 NH2 ]BO2 -C10 H16.benzene sulfonic acid]
Percent Activity (Human plasma kallikrein; inhibitor 10000 nM): 100% | Percent Activity (Human thrombin; inhibitor 100 nM): 18%

CC(C)CC(NC(=O)C(NC(=O)OC(C)(C)C)C(C)C)C(=O)NC(CCCCN)B1OC(C)(C)C(C)(C)O1.Cl (stereo not drawn) [Boc--(D)Val--Leu--boroLys--C6 H12.HCl, Boc-(D)Val-Leu-boroLys-C6 H12.benzene sulfonic acid]
Percent Activity (Human thrombin; inhibitor 1000 nM): 21%

CC(NC(=O)OC(C)(C)C)C(=O)NC(Cc1ccccc1)C(=O)NC(CCCCN)B1OC(C)(C)C(C)(C)O1.Cl (stereo not drawn) [Boc--Ala--Phe--(D,L)boroLys--C6 H12.HCl, Boc-Ala-Phe-(D,L)boroLys-C6 H12.HCl]
Percent Activity (Human plasma kallikrein; inhibitor 1000 nM): 17% | Percent Activity (Human thrombin; inhibitor 10000 nM): 46%

Br.CC(NC(=O)OC(C)(C)C)C(=O)NC(Cc1ccccc1)C(=O)NC(CCCCSC(=N)N)B1OC(C)(C)C(C)(C)O1 (stereo not drawn) [Boc-Ala-Phe-(D,L)boroHomoIrg-C6 H12.HBr]
Percent Activity (Human plasma kallikrein; inhibitor 100 nM): 38% | Percent Activity (Human thrombin; inhibitor 10000 nM): 32%

CC(C)CC(NC(=O)CNC(=O)C(CC(C)C)NC(=O)OC(C)(C)C)C(=O)NC(C)C(=O)NC(CCCNC(=N)N)B1OC2CC3CC(C3(C)C)C2(C)O1.O=S(=O)(O)c1ccccc1 (stereo not drawn) [Boc-Leu-Gly-Leu-Ala-boroArg-C10 H16.benzene sulfonic acid] (Boc-LGLA-X1; configuration not given here)
Percent Activity (Human plasma kallikrein; inhibitor 10 nM): 30% | Percent Activity (Human thrombin; inhibitor 10 nM): 38%

Br.CC(C)CC(NC(=O)CNC(=O)C(CC(C)C)NC(=O)OC(C)(C)C)C(=O)NC(C)C(=O)NC(CCCSC(=N)N)B1OC2CC3CC(C3(C)C)C2(C)O1 (stereo not drawn) [Boc-Leu-Gly-Leu-Ala-boroIrg-C10 H16.HBr] (Boc-LGLA-X2; configuration not given here)
Percent Activity (Human thrombin; inhibitor 10 nM): 66%

CC(C)CC(NC(=O)CNC(=O)C(CC(C)C)NC(=O)OC(C)(C)C)C(=O)NC(C)C(=O)NC(CCCN)B1OC2CC3CC(C3(C)C)C2(C)O1.O=S(=O)(O)c1ccccc1 (stereo not drawn) [Boc-Leu-Gly-Leu-Ala-boroOrn-C10 H16] (Boc-LGLA-X3; configuration not given here)
Percent Activity (Human thrombin; inhibitor 1000 nM): 24%

CCCCOC(=O)CC[C@H](NC(=O)c1ccccc1)C(=O)NCC(=O)NC(CCCNC(=N)N)B1OC2CC3CC(C3(C)C)C2(C)O1.O=S(=O)(O)c1ccccc1 (some centres unmarked) [Bz--Glu(OBu)--Gly--boroArg--C10 H16.BSA, Bz-Glu(OBu)-Gly-boroArg-C10 H16.benzene sulfonic acid]
Percent Activity (Human plasma kallikrein; inhibitor 50 nM): 11% | Percent Activity (Human thrombin; inhibitor 10 nM): 52%

CC1(C)C2CC3OB(C(CCCNC(=N)N)NC(=O)CNC(=O)C(CCC(=O)O)NC(=O)c4ccccc4)OC3(C)C1C2.O=S(=O)(O)c1ccccc1 (stereo not drawn) [Bz--Glu--Gly--boroArg--C10 H16.BSA, Bz-Glu-Gly-boroArg-C10 H16.benzene sulfonic acid]
Percent Activity (Human plasma kallikrein; inhibitor 50 nM): 39% | Percent Activity (Human thrombin; inhibitor 100 nM): 46%

Br.CC1(C)C2CC3OB(C(CCCSC(=N)N)NC(=O)CNC(=O)C(CCC(=O)O)NC(=O)c4ccccc4)OC3(C)C1C2 (stereo not drawn) [Bz--Glu--Gly--boroIrg-- C10 H16.HBr, Bz-Glu-Gly-boroIrg-C10 H16.HBr]
Percent Activity (Human thrombin; inhibitor 1000 nM): 39%

CC1(C)C2CC3OB(C(CCCNC(=N)N)NC(=O)C(Cc4ccccc4)NC(=O)C4CCCN4C(=O)c4ccccc4)OC3(C)C1C2.O=S(=O)(O)c1ccccc1 (stereo not drawn) [Bz--Pro--Phe--boroArg--C10 H16.BSA, Bz-Pro-Phe-boroArg-C10 H16.benzene sulfonic acid]
Percent Activity (Human plasma kallikrein; inhibitor 10 nM): 15% | Percent Activity (Human thrombin; inhibitor 1000 nM): 24%

Cl.NC(N)=NCCC[C@H](NC(=O)[C@H](Cc1ccccc1)NC(=O)[C@@H]1CCCN1C(=O)c1ccccc1)B(O)O [Bz--Pro--Phe--boroArg--OH.HCl, Bz-Pro-Phe-boroArg-OH.HCl]
Percent Activity (Human plasma kallikrein; inhibitor 10 nM): 16% | Percent Activity (Human thrombin; inhibitor 1000 nM): 18%

Br.CC1(C)C2CC3OB(C(CCCSC(=N)N)NC(=O)C(Cc4ccccc4)NC(=O)C4CCCN4C(=O)c4ccccc4)OC3(C)C1C2 (stereo not drawn) [Bz--Pro--Phe--boroIrg--C10 H16.HBr, Bz-Pro-Phe-boroIrg-C10 H16.HBr]
Percent Activity (Human thrombin; inhibitor 1000 nM): 21%

Br.Br.CC1(C)C2CC3OB(C(CCCSC(=N)N)NC(=O)C(Cc4ccccc4)NC(=O)C(N)Cc4ccccc4)OC3(C)C1C2 (stereo not drawn) [H--(D)Phe--Phe-- boroIrg--C10 H16.2HBr, H-(D)Phe-Phe-boroIrg-C10 H16.2HBr]
Percent Activity (Human thrombin; inhibitor 10 nM): 49%

CC1(C)C2CC3OB(C(CCCNC(=N)N)NC(=O)C(Cc4ccccc4)NC(=O)C(N)Cc4ccccc4)OC3(C)C1C2.Cl.Cl (stereo not drawn) [H--(D)Phe--Phe--boroArg--C10 H16.2HCl, H-(D)Phe-Phe-boroArg-C10 H16.2HCl]
inhibits kallikrein (Human plasma kallikrein; inhibitor 10 nM): greater than 95% | Percent Activity (Human plasma kallikrein; inhibitor 10 nM): 2.6% | Percent Activity (Human thrombin; inhibitor 10 nM): 10%

Br.CC1(C)C2CC3OB(C(CCCSC(=N)N)NC(=O)C4CCCN4C(=O)C(N)Cc4ccccc4)OC3(C)C1C2.Cl (stereo not drawn) [H--(D)Phe--Pro--boroIrg--C10 H16.HBr.HCl, H-(D)Phe-Pro-boroIrg-C10 H16.HBr,HCl]
Percent Activity (Human thrombin; inhibitor 5 nM): 4%

Br.Br.CC(N)C(=O)NC(Cc1ccccc1)C(=O)NC(CCCSC(=N)N)B1OC(C)(C)C(C)(C)O1 (stereo not drawn) [H--Ala--Phe--(D,L)boroIrg--C6 H12.2HBr, H-Ala-Phe-(D,L)boroIrg-C6 H12.2HBr]
Percent Activity (Human thrombin; inhibitor 10000 nM): 23%

Br.Br.CC(N)C(=O)NC(Cc1ccccc1)C(=O)NC(CCCCSC(=N)N)B1OC(C)(C)C(C)(C)O1 (stereo not drawn) [H-Ala-Phe-(D,L)boroHomoIrg-C6 H12.2HBr]
Percent Activity (Human thrombin; inhibitor 10000 nM): 47%

CC(C)CC(N)C(=O)NCC(=O)NC(CC(C)C)C(=O)NC(C)C(=O)NC(CCCNC(=N)N)B1OC2CC3CC(C3(C)C)C2(C)O1.Cl.O=S(=O)(O)c1ccccc1 (stereo not drawn) [H-Leu-Gly-Leu-Ala-boroArg-C10 H16.HCl.benzene sulfonic acid] (H-LGLA-X1; configuration not given here)
Percent Activity (Human thrombin; inhibitor 10 nM): 25%

Br.Br.CC(C)CC(N)C(=O)NCC(=O)NC(CC(C)C)C(=O)NC(C)C(=O)NC(CCCSC(=N)N)B1OC2CC3CC(C3(C)C)C2(C)O1 (stereo not drawn) [H-Leu-Gly-Leu-Ala-boroIrg-C10 H16.2HBr] (H-LGLA-X2; configuration not given here)
Percent Activity (Human thrombin; inhibitor 10 nM): 37%

Br.CC1(C)C2CC3OB(C(CCCSC(=N)N)NC(=O)CNC(=O)CNC(=O)C(Cc4ccccc4)NC(=O)OCc4ccccc4)OC3(C)C1C2 (stereo not drawn) [Z--Phe--Gly--Gly--boroIrg--C10 H16.HBr, Z-PheGly-Gly-boroIrg-C10 H16.HBr]
Percent Activity (Human thrombin; inhibitor 100 nM): 46%

Ac-Ala-Lys(Boc)-boroArg-C10 H16.benzene sulfonic acid [Ac--Ala--Lys(Boc)--boroArg--C10 H16.BSA]
Percent Activity (Human plasma kallikrein; inhibitor 10 nM): 34% | Percent Activity (Human thrombin; inhibitor 100 nM): 18%

Boc-Ala-Phe-(D,L)boroIrg-C6 H12.HBr [Boc--Ala--Phe--(D,L)boroIrg--C6 H12.HBr]
Percent Activity (Human plasma kallikrein; inhibitor 10 nM): 15% | Percent Activity (Human thrombin; inhibitor 1000 nM): 28%

Bz-Glu(OBu)-Gly-boroIrg-C10 H16.HBr [Bz--Glu(OBu--Gly--boroIrg--C10 H16.HBr]
Percent Activity (Human thrombin; inhibitor 10 nM): 59%

Bz-Pro-Phe-boroArg-F.hydrogen chloride [Bz--Pro--Phe--boroArg--F]
Percent Activity (Human plasma kallikrein; inhibitor 10 nM): 18% | Percent Activity (Human thrombin; inhibitor 1000 nM): 18%

H-A]a-Phe-(D,L)boroLys-C6 H12.TFA.benzene sulfonic acid [H--Ala--Phe--D,L)boroLys--C6 H12.2HCl]
Percent Activity (Human thrombin; inhibitor 10000 nM): 89%
